In US11845752B2, “Substituted imidazo[1,5-a]pyrazines for the treatment of hepatitis B” (ALIGOS THERAPEUTICS, INC., priority 2020, dated 2023):
Like-named read-outs stand apart in the source and are kept apart here.

Tested on: HBV
Assay: HBV-DNA antiviral assay using HepG2.117 cells (intracellular HBV DNA by qPCR)
Type: cell-based, HBV genotype D
Conditions: HBV DNA inhibition, 3 days incubation, read-out: EC50
In short: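 Read-outs: cell-lysate HBV DNA copies by qPCR (interpolated from gBlock standard) and parallel cellular ATP luminescence for CC50, both normalised to 2% DMSO controls and fitted by non-linear regression. HepG2.117 Tet-off genotype D HBV cells, induced by doxycycline removal, exposed 3 days to 4-fold serial dilutions.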

[1] = Hepatitis B virus, HepG2.117, 72 h

Row | Structure (SMILES) | EC50 [1] | EC50
1 | Cc1nnc(-c2ccccc2CNC(=O)c2c3n(c(=O)n2-c2ccc(OC4CC4)cc2)CC(C)N(C(=O)c2ccc(Br)c(C#N)c2)C3)o1 (single isomer, unassigned) [Compound 5a, (6S*)-7-(4-bromo-3-cyano-benzoyl)-2-[4-(cyclopropoxy)phenyl]-6-methyl-N-[[2-(5-methyl-1,3,4-oxadiazol-2-yl)phenyl]methyl]-3-oxo-6,8-dihydro-5H-imidazo[1,5-a]pyrazine-1-carboxamide] | 500 to 5000 nM | –
2 | Cc1cnn(-c2ccccc2CNC(=O)c2c3n(c(=O)n2-c2ccc(OC4CC4)cc2)CC(C)N(C(=O)c2ccc(Br)c(Cl)c2)C3)c1 (single isomer, unassigned) [Compound 6a, 7-(4-bromo-3-chloro-benzoyl)-2-[4-(cyclopropoxy)phenyl]-6-methyl-N-[[2-(4-methylpyrazol-1-yl)phenyl]methyl]-3-oxo-6,8-dihydro-5H-imidazo[1,5-a]pyrazine-1-carboxamide] | 50 to 500 nM | –
3 | Cc1cnn(-c2ccccc2CNC(=O)c2c3n(c(=O)n2-c2ccc(OC4CC4)cc2)CC(C)N(C(=O)c2ccc(Br)c(Cl)c2)C3)c1 (single isomer, unassigned) [Compound 6b, 7-(4-bromo-3-chloro-benzoyl)-2-[4-(cyclopropoxy)phenyl]-6-methyl-N-[[2-(4-methylpyrazol-1-yl)phenyl]methyl]-3-oxo-6,8-dihydro-5H-imidazo[1,5-a]pyrazine-1-carboxamide] | – | < 50 nM
4 | CC1Cn2c(c(C(=O)NCc3ccccc3-c3cccnn3)n(-c3ccc(OC4CC4)cc3)c2=O)CN1C(=O)c1ccc(Br)c(Cl)c1 (single isomer, unassigned) [Compound 7a, 7-(4-bromo-3-chloro-benzoyl)-2-[4-(cyclopropoxy)phenyl]-6-methyl-3-oxo-N-[(2-pyridazin-3-ylphenyl)methyl]-6,8-dihydro-5H-imidazo[1,5-a]pyrazine-1-carboxamide] | 50 to 500 nM | –
5 | CC1Cn2c(c(C(=O)NCc3ccccc3-c3cccnn3)n(-c3ccc(OC4CC4)cc3)c2=O)CN1C(=O)c1ccc(Br)c(Cl)c1 (single isomer, unassigned) [Compound 7b, 7-(4-bromo-3-chloro-benzoyl)-2-[4-(cyclopropoxy)phenyl]-6-methyl-3-oxo-N-[(2-pyridazin-3-ylphenyl)methyl]-6,8-dihydro-5H-imidazo[1,5-a]pyrazine-1-carboxamide] | – | < 50 nM
6 | CC1Cn2c(c(C(=O)NCc3ccccc3-c3cc(N)ncn3)n(-c3ccc(OC4CC4)cc3)c2=O)CN1C(=O)c1ccc(Br)c(Cl)c1 (single isomer, unassigned) [Compound 8a, N-[[2-(6-aminopyrimidin-4-yl)phenyl]methyl]-7-(4-bromo-3-chloro-benzoyl)-2-[4-(cyclopropoxy)phenyl]-6-methyl-3-oxo-6,8-dihydro-5H-imidazo[1,5-a]pyrazine-1-carboxamide] | 50 to 500 nM | –
7 | CC1Cn2c(c(C(=O)NCc3ccccc3-c3cc(N)ncn3)n(-c3ccc(OC4CC4)cc3)c2=O)CN1C(=O)c1ccc(Br)c(Cl)c1 (single isomer, unassigned) [Compound 8b, N-[[2-(6-aminopyrimidin-4-yl)phenyl]methyl]-7-(4-bromo-3-chloro-benzoyl)-2-[4-(cyclopropoxy)phenyl]-6-methyl-3-oxo-6,8-dihydro-5H-imidazo[1,5-a]pyrazine-1-carboxamide] | – | < 50 nM
8 | CC1Cn2c(c(C(=O)NCc3ccccc3-c3ccncn3)n(-c3ccc(OC4CC4)cc3)c2=O)CN1C(=O)c1ccc(Br)c(Cl)c1 (single isomer, unassigned) [Compound 9a, 7-(4-bromo-3-chloro-benzoyl)-2-[4-(cyclopropoxy)phenyl]-6-methyl-3-oxo-N-[(2-pyrimidin-4-ylphenyl)methyl]-6,8-dihydro-5H-imidazo[1,5-a]pyrazine-1-carboxamide] | 50 to 500 nM | –
9 | CC1Cn2c(c(C(=O)NCc3ccccc3-c3ccncn3)n(-c3ccc(OC4CC4)cc3)c2=O)CN1C(=O)c1ccc(Br)c(Cl)c1 (single isomer, unassigned) [Compound 9b, 7-(4-bromo-3-chloro-benzoyl)-2-[4-(cyclopropoxy)phenyl]-6-methyl-3-oxo-N-[(2-pyrimidin-4-ylphenyl)methyl]-6,8-dihydro-5H-imidazo[1,5-a]pyrazine-1-carboxamide] | – | < 50 nM
10 | CC1Cn2c(c(C(=O)NCc3ccccc3-c3ccc(N)nn3)n(-c3ccc(OC4CC4)cc3)c2=O)CN1C(=O)c1ccc(Br)c(Cl)c1 (single isomer, unassigned) [Compound 10a, N-[[2-(6-aminopyridazin-3-yl)phenyl]methyl]-7-(4-bromo-3-chloro-benzoyl)-2-[4-(cyclopropoxy)phenyl]-6-methyl-3-oxo-6,8-dihydro-5H-imidazo[1,5-a]pyrazine-1-carboxamide] | – | 500 to 5000 nM
11 | CC1Cn2c(c(C(=O)NCc3ccccc3-c3ccc(N)nn3)n(-c3ccc(OC4CC4)cc3)c2=O)CN1C(=O)c1ccc(Br)c(Cl)c1 (single isomer, unassigned) [Compound 10b, N-[[2-(6-aminopyridazin-3-yl)phenyl]methyl]-7-(4-bromo-3-chloro-benzoyl)-2-[4-(cyclopropoxy)phenyl]-6-methyl-3-oxo-6,8-dihydro-5H-imidazo[1,5-a]pyrazine-1-carboxamide] | – | 50 to 500 nM
12 | CC1Cn2c(c(C(=O)NCc3ccccc3-c3ccnc(N)n3)n(-c3ccc(OC4CC4)cc3)c2=O)CN1C(=O)c1ccc(Br)c(Cl)c1 (single isomer, unassigned) [Compound 11a, N-[[2-(2-aminopyrimidin-4-yl)phenyl]methyl]-7-(4-bromo-3-chloro-benzoyl)-2-[4-(cyclopropoxy)phenyl]-6-methyl-3-oxo-6,8-dihydro-5H-imidazo[1,5-a]pyrazine-1-carboxamide] | < 50 nM | –
13 | CC1Cn2c(c(C(=O)NCc3ccccc3-c3ccnc(N)n3)n(-c3ccc(OC4CC4)cc3)c2=O)CN1C(=O)c1ccc(Br)c(Cl)c1 (single isomer, unassigned) [Compound 11b, N-[[2-(2-aminopyrimidin-4-yl)phenyl]methyl]-7-(4-bromo-3-chloro-benzoyl)-2-[4-(cyclopropoxy)phenyl]-6-methyl-3-oxo-6,8-dihydro-5H-imidazo[1,5-a]pyrazine-1-carboxamide] | – | 50 to 500 nM
14 | Cc1cc(C(=O)N2Cc3c(C(=O)NCc4ccccc4-c4ccncn4)n(-c4ccc(OC5CC5)cc4)c(=O)n3CC2C)ccc1Br (single isomer, unassigned) [Compound 12a, 7-(4-bromo-3-methyl-benzoyl)-2-[4-(cyclopropoxy)phenyl]-6-methyl-3-oxo-N-[(2-pyrimidin-4-ylphenyl)methyl]-6,8-dihydro-5H-imidazo[1,5-a]pyrazine-1-carboxamide] | 50 to 500 nM | –
15 | Cc1cc(C(=O)N2Cc3c(C(=O)NCc4ccccc4-c4ccncn4)n(-c4ccc(OC5CC5)cc4)c(=O)n3CC2C)ccc1Br (single isomer, unassigned) [Compound 12b, 7-(4-bromo-3-methyl-benzoyl)-2-[4-(cyclopropoxy)phenyl]-6-methyl-3-oxo-N-[(2-pyrimidin-4-ylphenyl)methyl]-6,8-dihydro-5H-imidazo[1,5-a]pyrazine-1-carboxamide] | – | < 50 nM
16 | CC1Cn2c(c(C(=O)NCc3ccccc3-c3ccncn3)n(-c3ccc(OC4CC4)cc3)c2=O)CN1C(=O)c1ccc(Br)c(C(F)(F)F)c1 (single isomer, unassigned) [Compound 13a, 7-[4-bromo-3-(trifluoromethyl)benzoyl]-2-[4-(cyclopropoxy)phenyl]-6-methyl-3-oxo-N-[(2-pyrimidin-4-ylphenyl)methyl]-6,8-dihydro-5H-imidazo[1,5-a]pyrazine-1-carboxamide] | 50 to 500 nM | –
17 | CC1Cn2c(c(C(=O)NCc3ccccc3-c3ccncn3)n(-c3ccc(OC4CC4)cc3)c2=O)CN1C(=O)c1ccc(Br)c(C(F)(F)F)c1 (single isomer, unassigned) [Compound 13b, 7-[4-bromo-3-(trifluoromethyl)benzoyl]-2-[4-(cyclopropoxy)phenyl]-6-methyl-3-oxo-N-[(2-pyrimidin-4-ylphenyl)methyl]-6,8-dihydro-5H-imidazo[1,5-a]pyrazine-1-carboxamide] | – | < 50 nM
18 | CC1Cn2c(c(C(=O)NCc3ccccc3-c3ccncn3)n(-c3ccc(OC4CC4)cc3)c2=O)CN1C(=O)c1ccc(Br)c(C(F)F)c1 (single isomer, unassigned) [Compound 16a, 7-[4-bromo-3-(difluoromethyl)benzoyl]-2-[4-(cyclopropoxy)phenyl]-6-methyl-3-oxo-N-[(2-pyrimidin-4-ylphenyl)methyl]-6,8-dihydro-5H-imidazo[1,5-a]pyrazine-1-carboxamide] | 50 to 500 nM | –
19 | CC1Cn2c(c(C(=O)NCc3ccccc3-c3ccncn3)n(-c3ccc(OC4CC4)cc3)c2=O)CN1C(=O)c1ccc(Br)c(C(F)F)c1 (single isomer, unassigned) [Compound 16b, 7-[4-bromo-3-(difluoromethyl)benzoyl]-2-[4-(cyclopropoxy)phenyl]-6-methyl-3-oxo-N-[(2-pyrimidin-4-ylphenyl)methyl]-6,8-dihydro-5H-imidazo[1,5-a]pyrazine-1-carboxamide] | – | < 50 nM
20 | COc1cnn(-c2ccccc2CNC(=O)c2c3n(c(=O)n2-c2ccc(OC4CC4)cc2)CC(C)N(C(=O)c2ccc(Br)c(Cl)c2)C3)c1 (single isomer, unassigned) [Compound 17a, 7-(4-bromo-3-chloro-benzoyl)-2-[4-(cyclopropoxy)phenyl]-N-[[2-(4-methoxypyrazol-1-yl)phenyl]methyl]-6-methyl-3-oxo-6,8-dihydro-5H-imidazo[1,5-a]pyrazine-1-carboxamide] | 50 to 500 nM | –
21 | COc1cnn(-c2ccccc2CNC(=O)c2c3n(c(=O)n2-c2ccc(OC4CC4)cc2)CC(C)N(C(=O)c2ccc(Br)c(Cl)c2)C3)c1 (single isomer, unassigned) [Compound 17b, 7-(4-bromo-3-chloro-benzoyl)-2-[4-(cyclopropoxy)phenyl]-N-[[2-(4-methoxypyrazol-1-yl)phenyl]methyl]-6-methyl-3-oxo-6,8-dihydro-5H-imidazo[1,5-a]pyrazine-1-carboxamide] | – | < 50 nM
